Test results as given in patent US10285986B2, “Compounds and anti-tumor NQO1 substrates” (The Board of Trustees of the University of Illinois, priority 2011, dated 2019).
Converted amounts (≈) assume the structure as drawn. “And” between values parts separate entries of the source, which are not always exact repeats. Equal entries are not always repeated. Where two headings read alike, the source gives them in different places.

What was measured:
[1] = system: MCF-7 cells; test: Cytotoxicity to MCF-7 cells with or without 25 μM dicoumarol (sulforhodamine B assay); type: cell-based, human; conditions: for IC50: Homo sapiens; for Fold Protection of MCF7 cells w/ 25 μM dicoumarol: Table 1
How it was run: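 MCF-7 cells, which express high NQO1, were exposed to compounds for 2 hours with or without 25 μM dicoumarol. They were then washed and kept 72 hours in fresh media. Cell death was measured by sulforhodamine B assay.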

[2] = Solubility in organic solvents; type: physicochemical; conditions: for solubility: organic solvent or mixture, thermodynamic from solid
Method: The solubility of DNQ derivatives in organic solvents was determined by measuring the amount of a given solvent required to dissolve a known amount of compound. Solvent was added to the compound in 50 μL aliquots and the slurry was sonicated. […] Solubility was assessed in DMSO, dichloromethane, and 33% methanol in dichloromethane (FIGS. 9, 10, and 11, respectively).

[3] = Solubility in organic solvents; type: physicochemical; conditions: organic solvent or mixture, thermodynamic from solid; THF; Table 1
[4] = Maximum tolerated dose in mice; conditions: mouse, ip
Text: Because of the difficulty of repeated tail vein injections in mice, our group is using IP administration of compound.
All of these derivatives are currently being assessed for their maximum tolerated dose (MTD) in healthy mice. Compounds are formulated in HPβCD and delivered by IP injection to two mice once daily for five days.

[5] = system: PAR-PARP1; test: PARP1 hyperactivation (PAR-PARP1 formation) in vivo in orthotopic Lewis Lung Carcinoma model, immunoblotting; set-up: species or system NOD/SCID mice; conditions: iv at or near MTD
Method: Antibodies that specifically detect poly(ADP-ribosyl)ated α-PAR (BD Pharmingen, San Jose, Calif.) proteins (e.g., the most abundant species, poly(ADP-ribosyl)ated PARP1, PAR-PARP1) and α-PARP1 (sc-8007, Santa Cruz Biotechnology) antibodies were used at 1:4000 and 1:2000 dilutions, respectively. α-Tubulin was monitored for loading.
To generate a known control to monitor the formation of poly(ADP-ribose)ylated-polymerase 1 (PAR-PARP1) in cells, LLC tumor cells were treated in vitro with hydrogen peroxide (H2O2, 0.5 μM) for 15 minutes, and whole cell protein lysates were separated by SDS-PAGE using the α-PAR (BD Pharmingen, San Jose, Calif.) antibody described above. PAR-PARP1 formation was then assessed by immunoblot analyses as previously described in Huang et al., Cancer Research, 2012.
LLC cells (1.0×10^6) were intravenously (iv) injected into the tail veins of female 18-20 gram NOD/SCID mice. Establishment of tumor nodules in the lungs of exposed mice were confirmed by bioluminescence and mice (5/group) were treated intravenously (via tail vein injection) with: (i) hydroxypropyl-beta-cyclodextrin (HPRCD) vehicle alone; (ii) DNQ (7.5 mg/kg); (ii) DNQ-87 (14 mg/kg); (iii) DNQ-107 (10 mg/kg); or (vi) DNQ 9-251 (20 mg/kg) dissolved in HPRCD. At specific times indicated (in mins) after injection of vehicle or drug, mice were euthanized, lungs removed and tumor nodules harvested. […] Extracts from cells treated with H2O2 were used as controls for monitoring PAR-PARP1 formation in LLC tumor cells.

[6] = Aqueous solubility in pH 7.4 PBS by LC-MS; type: physicochemical
How it was run: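 Solid compound was sonicated 30 min in pH 7.4 PBS (the bath warmed to 45 °C, samples were cooled before filtration) and passed through a 0.45 μm filter. Filtrate was quantified by LC-MS with UV at 275 nm against a 1–100 μM DNQ calibration curve, which was also applied to derivatives. Strongly coloured filtrates were diluted 10-fold in PBS.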

[7] = target: NQO1 (Homo sapiens, UniProt P15559); test: NQO1 enzymatic measurements in vitro; type: biochemical; conditions: 1 μM substrate
Method: As further evidence that the activity of these DNQ derivatives is dependent on their ability to be reduced by NQO1, full enzymatic measurements in vitro were performed. We found a strong correlation between catalytic efficiency of substrates in vitro and their cell culture toxicity. […] This provides strong evidence that the cytotoxicity of DNQ and its derivatives are dependent primarily upon the activity of NQO1 within the cell.

[8] = MCF7, Table 1, read-out: MCF7 IC50
[9] = MCF7, Table 4.2, no DIC, ± s.e., read-out: IC50 vs. MCF-7 cells
[10] = MCF7, classification in figure legends of FIGS. 7-11, read-out: IC50 ("active" / generally "inactive" compounds)
[11] = MCF7, read-out: IC50 vs. MCF-7 cells +25 μM DIC, Table 4.2, +25 μM DIC, ± s.e.
[12] = 2:1 CH2Cl2:MeOH, Table 4.3, read-out: Solubility in 2:1 CH2Cl2:MeOH
[13] = CH2Cl2:MeOH 2:1, Table 1, read-out: CH2Cl2:MeOH 2:1 solubility
[14] = CH2Cl2, Table 1, read-out: CH2Cl2 solubility
[15] = DMSO, Table 1, read-out: DMSO solubility
[16] = phosphate buffered saline, pH 7.4, aqueous buffer, thermodynamic from solid, PBS pH 7.4, Table 4.3

Chain of NQO1 (P15559 whole entry): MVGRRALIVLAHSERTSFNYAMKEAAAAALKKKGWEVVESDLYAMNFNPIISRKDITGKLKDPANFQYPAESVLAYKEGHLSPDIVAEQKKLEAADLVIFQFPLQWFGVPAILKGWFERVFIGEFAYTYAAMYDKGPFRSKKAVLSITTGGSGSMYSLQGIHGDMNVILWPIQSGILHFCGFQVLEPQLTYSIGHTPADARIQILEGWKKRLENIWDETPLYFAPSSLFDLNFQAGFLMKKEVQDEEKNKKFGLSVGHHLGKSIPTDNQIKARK

Row | SMILES | IC50 [1, 8] | IC50 [1, 9] | IC50 [1, 10] | IC50 [1, 11] | Fold Protection of MCF7 cells w/ 25 μM dicoumarol [1] | Fold protection by DIC ([1]; Table 4.2) | Solubility in CH2Cl2 ([2]; CH2Cl2, Table 4.3) | Solubility in DMSO ([2]; DMSO, Table 4.3) | solubility [2, 12] | solubility [2, 13] | solubility [2, 14] | solubility [2, 15] | solubility [3] | MTD at 5 days ([4]; in vivo) | PAR-PARP1 formation in tumor tissue [5] | solubility at 30 min [6, 16] | NQO1 Initial Velocity @ 1 μM [7] | other results
1 | Cc1cc(=O)[nH]c2c1C(=O)c1c(C)cc(=O)n(CC(C)C)c1C2=O [Compound 87] | 250 nM | 230 ± 20 nM | < 500 nM | 1100 ± 100 nM | 6.1 | 4.8 | 180 mM (≈ 58700 µg/mL) | 110 mM (≈ 35900 µg/mL) | 140 mM (≈ 45700 µg/mL) | 140 mM (≈ 45700 µg/mL) | 180 mM (≈ 58700 µg/mL) | 110 mM (≈ 35900 µg/mL) | 34 mM (≈ 11100 µg/mL) | 14 mg/kg and 44 µmol/kg | higher levels of PAR-PARP1 formation | 0.115 mM (≈ 37.5 µg/mL) | 1900 ± 200 | –
2 | Cc1cc(=O)[nH]c2c1C(=O)c1c(C)cc(=O)n(C)c1C2=O [DNQ, Deoxynyboquinone, reference compound] | 190 nM | 130 ± 20 nM | < 500 nM | 1800 ± 300 nM | 7.8 | 14 | 0.7 mM (≈ 199 µg/mL) | 3.1 mM (≈ 881 µg/mL) | 8.5 mM (≈ 2420 µg/mL) | 8.5 mM (≈ 2420 µg/mL) | 0.7 mM (≈ 199 µg/mL) | 3.1 mM (≈ 881 µg/mL) | 0.42 mM (≈ 119 µg/mL) | 5 mg/kg | formation of PAR-PARP1 | 0.115 mM (≈ 32.7 µg/mL) | 1900 ± 100 | IC50 ([1]; MCF7, 2 h, Table 4.1, 2 h exposure, no DIC, ± s.e., read-out: IC50 vs. MCF-7 cells): 130 ± 20 nM; IC50 ([1]; MCF7, read-out: IC50 vs. MCF-7 cells +25 μM DIC, Table 4.1, +25 μM DIC, ± s.e.): 1700 ± 300 nM; Fold protection by DIC ([1]; Table 4.1): 14; MTD ([4]; in vivo): ~5 mg/kg; MTD at 5 days [4]: 18 µmol/kg; solubility at 30 min ([6]; pH 7.4 PBS): 0.1 mM (≈ 28.4 µg/mL); solubility at 30 min ([6]; phosphate buffered saline, pH 7.4, aqueous buffer, thermodynamic from solid, pH 7.4 PBS): 0.115 mM (≈ 32.7 µg/mL)
